One experiment has as its system B. subtilis 168. The experiment is described as follows: Antimicrobial susceptibility assay (broth microdilution MIC). It counts as cell-based. An excerpt: (§1) The bacterial strains S. aureus ATCC 29213, S. aureus ATCC 29247, S. aureus ATCC BAA-41, E. faecium ATCC 49624, E. faecium ATCC 700221, E. faecalis ATCC 29212, S. epidermidis ATCC 12228, E. coli ATCC 25922, and K. pneumoniae ATCC BAA-1144 used in the antimicrobial susceptibility assays were purchased from American Type Culture Collection (ATCC, USA). B. subtilis strain 168 was already available in our in-house collection. E. coli JM109 WM647 was kindly provided by Dr. W. Margolin (University of Texas-Houston Medical School). FM 4–64 was purchased from Invitrogen (Eugene, Oregon). All other chemicals and reagents were purchased from Sigma-Aldrich. Stock solutions were prepared in DMSO. The final percentage of DMSO in the assays was 1% (v/v) for all experiments.
(§2) Antimicrobial susceptibility tests were conducted in 96-well microplates using the broth microdilution procedure described in the Clinical and Laboratory Standards Institute (CLSI) guidelines. Cation-adjusted Mueller Hinton broth for S. aureus strain ATCC 29213, methicillin-resistant S. aureus strain ATCC BAA-41 and ampicillin-resistant S. aureus strain ATCC 29247, or brain heart infusion broth for antibiotic-susceptible E. faecium strain ATCC 49624 and vancomycin-resistant E. faecium strain ATCC 700221, or Mueller Hinton broth for antibiotic-susceptible strains B. subtilis strain 168, E. faecalis strain ATCC 29212 and E. coli strain ATCC 25922 were used in the assays. After incubation for 18 h at 37°C, the absorbance at 600 nm (A600) was recorded using a microplate reader (Bio-Rad laboratory Ltd., UK) and the percentage of bacterial cell inhibition with respect to vehicles (1% DMSO) was calculated. The MIC was defined as the lowest compound concentration at which the growth of bacteria was inhibited by ≥90%. Three independent assays were performed for each test.

Another experiment relates to E. coli ATCC 25922. Described as above. It counts as cell-based. Conditions: Escherichia coli.
Excerpt: as §1, §2

The test system of the next experiment is E. faecalis ATCC 29212. Described as above. It counts as cell-based. Conditions: Enterococcus faecalis.
Excerpt: as §1, §2

For experiment [1], the system named is K. pneumoniae ATCC BAA-1144. The experiment is described as above. Conditions: Klebsiella pneumoniae. It counts as cell-based.
Excerpt: as §1, §2

The next experiment concerns S. aureus ATCC 29213. The experiment is described as above. It counts as cell-based. Conditions: Staphylococcus aureus.
Excerpt: as §1, §2

The subject of another experiment is S. aureus ATCC 29247. The description is as above. It counts as cell-based. Conditions: Staphylococcus aureus.
Excerpt: as §1, §2

The test system of another experiment is S. aureus ATCC BAA-41. Described as above. It counts as cell-based. Conditions: Staphylococcus aureus.
Excerpt: as §1, §2

In experiment [2] the test system is S. epidermidis ATCC 12228. Described as above. It counts as cell-based. Conditions: Staphylococcus epidermidis.
Excerpt: as §1, §2

In another experiment the target is T1, S. aureus FtsZ (Staphylococcus aureus, UniProt P0A031).
T1 construct: made in house; host or cells: E. coli BL21(DE3)
T1 sequence (P0A031 1-390): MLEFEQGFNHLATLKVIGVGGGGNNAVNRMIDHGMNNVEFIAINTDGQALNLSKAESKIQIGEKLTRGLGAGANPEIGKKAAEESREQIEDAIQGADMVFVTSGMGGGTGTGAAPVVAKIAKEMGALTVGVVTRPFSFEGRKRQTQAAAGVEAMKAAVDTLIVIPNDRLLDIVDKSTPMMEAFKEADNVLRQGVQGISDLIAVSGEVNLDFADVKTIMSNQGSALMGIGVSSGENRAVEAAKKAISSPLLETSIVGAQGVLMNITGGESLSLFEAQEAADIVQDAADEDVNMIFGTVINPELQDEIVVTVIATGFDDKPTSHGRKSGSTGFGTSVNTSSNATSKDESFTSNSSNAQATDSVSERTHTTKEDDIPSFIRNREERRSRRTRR
In words: Light scattering assay of FtsZ polymerization. It counts as biochemical. Conditions: 1 mM compound; negative control. How it is done: E. coli BL21(DE3) cells were transformed with the pRSET-A-S vector carrying S. aureus FtsZ with a 6-histidine tag attached at its N-terminus under the control of a T7 promoter. […] When the OD600 reached 0.8, protein expression was induced with 0.4 mM isopropyl-β-D-thiogalactopyranoside (IPTG) for 4 h. Cells were harvested by centrifugation at 9000 rpm for 20 min at 4°C. The cell pellet was resuspended in 20 mL of solubilization buffer (50 mM Tris-HCl, 150 mM NaCl, 1 mM PMSF and 1 mM EDTA, pH 7.4) and then lysed with 1 mg/mL of lysozyme. The mixture was incubated for 1 h on ice. The cells were disrupted by sonication and the crude lysate obtained was centrifuged at 13,000 rpm for 1 h at 4°C. The supernatant containing 6-histidine tagged S. aureus FtsZ was collected and loaded onto a nickel charged HiTrap chelating column pre-equilibrated with starting buffer (20 mM sodium phosphate buffer, 0.5 M NaCl, pH 7.4). The column was then washed with 8 column volumes of the starting buffer to remove the unbound proteins, and the histidine-tagged enzyme was eluted by a linear gradient of 0−0.2 M imidazole. Fractions containing S. aureus FtsZ were pooled, buffer-exchanged with 20 mM NH4HCO3 (pH 8.0) at 4°C, lyophilized, and stored at −20°C. A stock solution of S. aureus FtsZ for the subsequent bioassay was prepared from the lyophilized powder.
The light scattering assay was performed using a protocol adapted from the literature. The polymerization and depolymerization of recombinant S. aureus FtsZ was measured using 90° light scattering in a thermostatically (37°C) controlled fluorescence spectrometer (Perkin Elmer, USA). Both excitation and emission wavelengths were set to 600 nm with a slit width of 2.5 nm. S. aureus FtsZ (6 µM) in 50 mM of MOPS buffer (pH 6.5) was incubated with vehicle (1% DMSO) or different concentrations of the test compound for 10 min at 25°C. 50 mM KCl and 10 mM MgCl2 were then added to establish a baseline. After 8 min, a final concentration of 1 mM GTP was added at the last fraction and the increase in light scattering was measured for an additional 2000s. The rate and extent of polymerization were measured. Appropriate blanks were subtracted from all experimental data. Moreover, in order to rule out unselective inhibition by formation of aggregates, control experiments with 0.01% (v/v) Triton X-100 from a freshly prepared 1% (v/v) stock solution were performed for berberine and compound 2 [40], [41]. Reported results are the average of three independent experiments.

The next experiment has as its system E. faecium ATCC 49624. The experiment is described as follows: Antimicrobial susceptibility assay (broth microdilution MIC). It counts as cell-based. Conditions: Enterococcus faecium.
Excerpt: as §1
(§3) Antimicrobial susceptibility tests were conducted in 96-well microplates using the broth microdilution procedure described in the Clinical and Laboratory Standards Institute (CLSI) guidelines. […] After incubation for 18 h at 37°C, the absorbance at 600 nm (A600) was recorded using a microplate reader (Bio-Rad laboratory Ltd., UK) and the percentage of bacterial cell inhibition with respect to vehicles (1% DMSO) was calculated. The MIC was defined as the lowest compound concentration at which the growth of bacteria was inhibited by ≥90%. Three independent assays were performed for each test.

Another experiment deals with E. faecium ATCC 700221. The experiment is described as above. It counts as cell-based. Conditions: Enterococcus faecium.
Excerpt: as §1, §3

Where [3] appears, read: Bacillus subtilis, B. subtilis 168, Mueller Hinton broth, 18 h at 37°C, growth inhibited by ≥90%, read-out: MIC.
[4] abbreviates: ATCC25922, E. coli ATCC 25922, Mueller Hinton broth, 18 h at 37°C, growth inhibited by ≥90%, read-out: MIC.
[5] abbreviates: ATCC29212, E. faecalis ATCC 29212, Mueller Hinton broth, 18 h at 37°C, growth inhibited by ≥90%, read-out: MIC.
[6] abbreviates: ATCCBAA1144, K. pneumoniae ATCC BAA-1144 (Gram-negative, expressing AmpC β-lactamase), 18 h at 37°C, growth inhibited by ≥90%, read-out: MIC.
Where [7] appears, read: ATCC29213, S. aureus ATCC 29213, cation-adjusted Mueller Hinton broth, 18 h at 37°C, growth inhibited by ≥90%, read-out: MIC.
Setting [8] is: ATCC29247, S. aureus ATCC 29247 (ampicillin-resistant), 18 h at 37°C, growth inhibited by ≥90%, read-out: MIC.
Where [9] appears, read: ATCCBAA41, S. aureus ATCC BAA-41 (methicillin-resistant), 18 h at 37°C, growth inhibited by ≥90%, read-out: MIC.
Where [10] appears, read: ATCC12228, S. epidermidis ATCC 12228, 18 h at 37°C, growth inhibited by ≥90%, read-out: MIC.

SMILES strings stand for the structures. Values after ≈ are worked out from the molar mass of the structure shown. Like-named read-outs stand apart in the source and are kept apart here.

`CC1(C)S[C@@H]2[C@H](NC(=O)[C@H](N)c3ccccc3)C(=O)N2[C@H]1C(=O)O` [Ampicillin, reference compound]: the MIC with B. subtilis 168 (setting [3]) was 0.1 µg/mL (≈ 0.286 µM); in the experiment on E. coli ATCC 25922 (setting [4]) it was 6 µg/mL (≈ 17.2 µM); in the experiment on E. faecalis ATCC 29212 (setting [5]), 6 µg/mL (≈ 17.2 µM); in experiment [1] (setting [6]), greater than 96 µg/mL; in the experiment on S. aureus ATCC 29213 (setting [7]), 1.5 µg/mL (≈ 4.29 µM); in the experiment with S. aureus ATCC 29247 (setting [8]), 48 µg/mL (≈ 137 µM). For the same compound, the MIC is greater than 96 µg/mL in the experiment with S. aureus ATCC BAA-41 (setting [9]) and 3 µg/mL (≈ 8.59 µM) in experiment [2] (setting [10]). Moreover, at S. aureus FtsZ, the “effect on the polymerization of S. aureus FtsZ” value is “no effect”.
On to `CN[C@H](CC(C)C)C(=O)N[C@H]1C(=O)N[C@@H](CC(N)=O)C(=O)N[C@H]2C(=O)N[C@H]3C(=O)N[C@H](C(=O)N[C@H](C(=O)O)c4cc(O)cc(O)c4-c4cc3ccc4O)[C@H](O)c3ccc(c(Cl)c3)Oc3cc2cc(c3O[C@@H]2O[C@H](CO)[C@@H](O)[C@H](O)[C@H]2O[C@H]2C[C@](C)(N)[C@H](O)[C@H](C)O2)Oc2ccc(cc2Cl)[C@H]1O` [Vancomycin, vancomycin, reference compound], for which the MIC in the experiment on E. faecium ATCC 49624 (ATCC49624, 18 h) was 1 µg/mL (≈ 0.69 µM); in the experiment on E. faecium ATCC 700221 (ATCC700221, 18 h) it was greater than 96 µg/mL; in the experiment with B. subtilis 168 (Bacillus subtilis, 168, 18 h), 1 µg/mL (≈ 0.69 µM); against E. coli ATCC 25922 (ATCC25922, 18 h), 2 µg/mL (≈ 1.38 µM); against E. faecalis ATCC 29212 (ATCC29212, 18 h), 1 µg/mL (≈ 0.69 µM); in experiment [1] (ATCCBAA1144, 18 h), 6 µg/mL (≈ 4.14 µM). The MIC with S. aureus ATCC 29213 (ATCC29213, 18 h) stood at 1 µg/mL (≈ 0.69 µM); against S. aureus ATCC 29247 (ATCC29247, 18 h) it was 1 µg/mL (≈ 0.69 µM); with S. aureus ATCC BAA-41 (ATCCBAA41, 18 h), 2 µg/mL (≈ 1.38 µM); in [2] (ATCC12228, 18 h), 1 µg/mL (≈ 0.69 µM).
`COc1ccc2cc3[n+](cc2c1OCCCBr)CCc1cc2c(cc1-3)OCO2` [Compound 7]: the MIC in the experiment with E. faecium ATCC 49624 (ATCC49624, E. faecium ATCC 49624, brain heart infusion broth, 18 h at 37°C, growth inhibited by ≥90%, read-out: MIC) was greater than 196 µg/mL; in the experiment on E. faecium ATCC 700221 (ATCC700221, E. faecium ATCC 700221 (vancomycin-resistant), brain heart infusion broth, 18 h at 37°C, growth inhibited by ≥90%, read-out: MIC), greater than 196 µg/mL; in the experiment on B. subtilis 168 (setting [3]) it was 112 µg/mL; with E. coli ATCC 25922 (setting [4]), 384 µg/mL; in the experiment on E. faecalis ATCC 29212 (setting [5]) it was greater than 196 µg/mL; in experiment [1] (setting [6]), greater than 384 µg/mL. Also, the MIC with S. aureus ATCC 29213 (setting [7]) was 112 µg/mL; in the experiment on S. aureus ATCC 29247 (setting [8]) it was 112 µg/mL; in the experiment with S. aureus ATCC BAA-41 (setting [9]), 196 µg/mL; in experiment [2] (setting [10]), 112 µg/mL.

Source of the values: paper PMC4019636, “Rational Design of Berberine-Based FtsZ Inhibitors with Broad-Spectrum Antibacterial Activity” (PLoS ONE, 2014).
